Experimental data published in the NIST ThermoML archive (doi:10.1016/j.jct.2018.11.015).
± gives the expanded uncertainty stated by the source.

Conditions: Liquid

With `CCCCOC(=O)c1ccccc1C(=O)OCc1ccccc1` [benzyl butyl 1,2-benzenedioate] the “vapor or sublimation pressure” value (343.15 K, Transpiration method) was 1.4e-05 ± 2e-06 kPa, the “vapor or sublimation pressure” value (353.15 K, Transpiration method) was 5.6e-05 ± 9e-06 kPa and the “vapor or sublimation pressure” value (373.15 K, Transpiration method) was 0.00039 ± 5e-05 kPa. The “vapor or sublimation pressure” value (393.15 K, Transpiration method) was 0.0022 ± 0.00031 kPa and the “vapor or sublimation pressure” value (423.15 K, Transpiration method) was 0.0238 ± 0.0034 kPa.

For `COC(=O)c1ccccc1C(=O)OC` [dimethyl 1,2-benzenedicarboxylate], the “vapor or sublimation pressure” value (313.15 K, Transpiration method) was 0.00141 ± 0.00023 kPa, the “vapor or sublimation pressure” value (333.15 K, Transpiration method) was 0.00789 ± 0.00067 kPa and the “vapor or sublimation pressure” value (350.9 K, Closed cell (Static) method) was 0.0297 ± 0.0019 kPa. For the same compound, the “vapor or sublimation pressure” value (353.15 K, Transpiration method) was 0.0332 ± 0.0022 kPa, the “vapor or sublimation pressure” value (361.52 K, Closed cell (Static) method) was 0.0589 ± 0.0037 kPa and the “vapor or sublimation pressure” value (371.6 K, Closed cell (Static) method) was 0.1104 ± 0.0069 kPa. For the same compound, the “vapor or sublimation pressure” value (373.15 K, Transpiration method) was 0.122 ± 0.007 kPa, the “vapor or sublimation pressure” value (381.69 K, Closed cell (Static) method) was 0.1986 ± 0.012 kPa and the “vapor or sublimation pressure” value (391.77 K, Closed cell (Static) method) was 0.3453 ± 0.021 kPa. The “vapor or sublimation pressure” value (393.15 K, Transpiration method) was 0.391 ± 0.024 kPa, the “vapor or sublimation pressure” value (401.71 K, Closed cell (Static) method) was 0.5751 ± 0.035 kPa and the “vapor or sublimation pressure” value (411.72 K, Closed cell (Static) method) was 0.9413 ± 0.038 kPa. For the same compound, the “vapor or sublimation pressure” value (421.57 K, Closed cell (Static) method) was 1.491 ± 0.06 kPa and the “vapor or sublimation pressure” value (423.15 K, Transpiration method) was 1.668 ± 0.09 kPa.
